Consider two molecules from PMC7099597 (ACS Central Science, 2020).

Assay [1] concerns 8B10 scFv Rip-3 (anti-MPTS). The assay can be described thus: MPTS fluorescence quenching, protein titration. The format is binding.
Assay [2] deals with 4D5Flu Rip-3 (anti-fluorescein scFv). The assay can be described thus: dose-dependent rescue of fluorescein quenching. Type of assay: binding, synthetic construct.

By EC50 is commonly meant the concentration at which the effect is half-maximal. Higher therefore signals a less potent agent. In assay [1], `COc1cc(S(=O)(=O)O)c2ccc3c(S(=O)(=O)O)cc(S(=O)(=O)O)c4ccc1c2c43` [MPTS, 8-methoxypyrene-1,3,6-trisulfonic acid] had an EC50 of 1 µM. In assay [2], `c1ccc(COc2ccc3cn[nH]c3c2)cc1` [Stitch-3, 6-(benzyloxy)indazole] registered an EC50 of 16 µM.
